In PubChem BioAssay AID2060488 (Molecular Pharmacology Branch, DTP, NCI, 2025):

Test system: 966289-007-R4-J1-PDC complex spheroid viability
Assay: Anticancer human tumor 966289-007-R4-J1-PDC patient-derived pancreatic adenocarcinoma cell line growth inhibition [GQUAD]
Conditions: for IC50: curve of first compound; for viability, T/C: stronger effect = lower value
Method in brief: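 Viability of tumor cells grown as complex spheroids with endothelial and stromal cells, exposed to drug combinations. Top concentration at or near clinical Cmax (else 10 microM), diluted in half-log increments.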

[1] = second compound 0.0316 µM, first compound 0.0316 µM
[2] = second compound 0.0316 µM, first compound 0.1 µM
[3] = second compound 0.0316 µM, first compound 0.316 µM
[4] = second compound 0.0316 µM, first compound 1 µM
[5] = second compound 0.0316 µM, first compound 3.16 µM
[6] = second compound 0.0316 µM, first compound 10 µM
[7] = second compound 0.1 µM, first compound 0.0316 µM
[8] = second compound 0.1 µM, first compound 0.1 µM
[9] = second compound 0.1 µM, first compound 0.316 µM
[10] = second compound 0.1 µM, first compound 1 µM
[11] = second compound 0.1 µM, first compound 3.16 µM
[12] = second compound 0.1 µM, first compound 10 µM
[13] = second compound 0.316 µM, first compound 0.0316 µM
[14] = second compound 0.316 µM, first compound 0.1 µM
[15] = second compound 0.316 µM, first compound 0.316 µM
[16] = second compound 0.316 µM, first compound 1 µM
[17] = second compound 0.316 µM, first compound 3.16 µM
[18] = second compound 0.316 µM, first compound 10 µM
[19] = second compound 1 µM, first compound 0.0316 µM
[20] = second compound 1 µM, first compound 0.1 µM
[21] = second compound 1 µM, first compound 0.316 µM
[22] = second compound 1 µM, first compound 1 µM
[23] = second compound 1 µM, first compound 3.16 µM
[24] = second compound 1 µM, first compound 10 µM
[25] = second compound 3.16 µM, first compound 0.0316 µM
[26] = second compound 3.16 µM, first compound 0.1 µM
[27] = second compound 3.16 µM, first compound 0.316 µM
[28] = second compound 3.16 µM, first compound 1 µM
[29] = second compound 3.16 µM, first compound 3.16 µM
[30] = second compound 3.16 µM, first compound 10 µM
[31] = second compound 10 µM, first compound 0.0316 µM
[32] = second compound 10 µM, first compound 0.1 µM
[33] = second compound 10 µM, first compound 0.316 µM
[34] = second compound 10 µM, first compound 1 µM
[35] = second compound 10 µM, first compound 3.16 µM
[36] = second compound 10 µM, first compound 10 µM
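Also: spheroids exposed to the agents for seven days before readout.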
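For viability, T/C in this document: percent viability relative to DMSO vehicle control wells taken as 100%.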

C=CCn1c(=O)c2cnc(Nc3ccc(N4CCN(C)CC4)cc3)nc2n1-c1cccc(C(C)(C)O)n1 + CN(C)c1ccc(Nc2c3ccc(NC(=O)CCN4CCCC4)cc3nc3cc(NC(=O)CCN4CCCC4)ccc23)cc1
IC50 (second compound 0.0316 µM): 1.85 µM
IC50 (second compound 0.1 µM): 1.88 µM
IC50 (second compound 0.316 µM): 1.9 µM
IC50 (second compound 1 µM): 1.9 µM
IC50 (second compound 3.16 µM): 1.75 µM
IC50 (second compound 10 µM): 1.32 µM
viability, T/C [1]: 104%
viability, T/C [2]: 103%
viability, T/C [3]: 113%
viability, T/C [4]: 99.8%
viability, T/C [5]: 6.96%
viability, T/C [6]: 2.02%
viability, T/C [7]: 99.6%
viability, T/C [8]: 103%
viability, T/C [9]: 111%
viability, T/C [10]: 101%
viability, T/C [11]: 8.04%
viability, T/C [12]: 1.98%
viability, T/C [13]: 96.8%
viability, T/C [14]: 97.2%
viability, T/C [15]: 110%
viability, T/C [16]: 102%
viability, T/C [17]: 8.92%
viability, T/C [18]: 1.93%
viability, T/C [19]: 95.3%
viability, T/C [20]: 108%
viability, T/C [21]: 113%
viability, T/C [22]: 102%
viability, T/C [23]: 8.33%
viability, T/C [24]: 2.74%
viability, T/C [25]: 104%
viability, T/C [26]: 104%
viability, T/C [27]: 112%
viability, T/C [28]: 88.2%
viability, T/C [29]: 9.59%
viability, T/C [30]: 4.27%
viability, T/C [31]: 105%
viability, T/C [32]: 102%
viability, T/C [33]: 101%
viability, T/C [34]: 64.6%
viability, T/C [35]: 3.41%
viability, T/C [36]: 1.03%

CCCS(=O)(=O)Nc1ccc(F)c(C(=O)c2c[nH]c3ncc(-c4ccc(Cl)cc4)cc23)c1F + CN(C)c1ccc(Nc2c3ccc(NC(=O)CCN4CCCC4)cc3nc3cc(NC(=O)CCN4CCCC4)ccc23)cc1
IC50 (second compound 0.0316 µM): 7.34 µM
IC50 (second compound 0.1 µM): 7.34 µM
IC50 (second compound 0.316 µM): 7.41 µM
IC50 (second compound 1 µM): 6.87 µM
IC50 (second compound 3.16 µM): 5.67 µM
IC50 (second compound 10 µM): 2.03 µM
viability, T/C [1]: 99.4%
viability, T/C [2]: 97.3%
viability, T/C [3]: 109%
viability, T/C [4]: 103%
viability, T/C [5]: 104%
viability, T/C [6]: 30.5%
viability, T/C [7]: 100%
viability, T/C [8]: 101%
viability, T/C [9]: 99.3%
viability, T/C [10]: 102%
viability, T/C [11]: 107%
viability, T/C [12]: 30.8%
viability, T/C [13]: 100%
viability, T/C [14]: 105%
viability, T/C [15]: 103%
viability, T/C [16]: 106%
viability, T/C [17]: 102%
viability, T/C [18]: 31.8%
viability, T/C [19]: 92.2%
viability, T/C [20]: 104%
viability, T/C [21]: 109%
viability, T/C [22]: 108%
viability, T/C [23]: 103%
viability, T/C [24]: 24.4%
viability, T/C [25]: 99.8%
viability, T/C [26]: 99.9%
viability, T/C [27]: 110%
viability, T/C [28]: 104%
viability, T/C [29]: 93.4%
viability, T/C [30]: 7.98%
viability, T/C [31]: 103%
viability, T/C [32]: 102%
viability, T/C [33]: 106%
viability, T/C [34]: 103%
viability, T/C [35]: 17.2%
viability, T/C [36]: 0.53%

Cc1[nH]c2ccccc2c1CCNCc1ccc(/C=C/C(=O)NO)cc1 + CN(C)c1ccc(Nc2c3ccc(NC(=O)CCN4CCCC4)cc3nc3cc(NC(=O)CCN4CCCC4)ccc23)cc1
IC50 (second compound 0.0316 µM): 0.078 µM
IC50 (second compound 0.1 µM): 0.0684 µM
IC50 (second compound 0.316 µM): 0.075 µM
IC50 (second compound 1 µM): 0.0675 µM
IC50 (second compound 3.16 µM): 0.0543 µM
IC50 (second compound 10 µM): 0.0469 µM
viability, T/C (second compound 0.0316 µM, first compound 0.000999 µM): 106%
viability, T/C (second compound 0.0316 µM, first compound 0.00316 µM): 95.3%
viability, T/C (second compound 0.0316 µM, first compound 0.00999 µM): 109%
viability, T/C [1]: 85.8%
viability, T/C (second compound 0.0316 µM, first compound 0.0999 µM): 40.2%
viability, T/C [3]: 5.05%
viability, T/C (second compound 0.1 µM, first compound 0.000999 µM): 106%
viability, T/C (second compound 0.1 µM, first compound 0.00316 µM): 102%
viability, T/C (second compound 0.1 µM, first compound 0.00999 µM): 109%
viability, T/C [7]: 87.8%
viability, T/C (second compound 0.1 µM, first compound 0.0999 µM): 31.4%
viability, T/C [9]: 4.54%
viability, T/C (second compound 0.316 µM, first compound 0.000999 µM): 94.7%
viability, T/C (second compound 0.316 µM, first compound 0.00316 µM): 97.8%
viability, T/C (second compound 0.316 µM, first compound 0.00999 µM): 109%
viability, T/C [13]: 101%
viability, T/C (second compound 0.316 µM, first compound 0.0999 µM): 33.1%
viability, T/C [15]: 3.99%
viability, T/C (second compound 1 µM, first compound 0.000999 µM): 98.9%
viability, T/C (second compound 1 µM, first compound 0.00316 µM): 100%
viability, T/C (second compound 1 µM, first compound 0.00999 µM): 108%
viability, T/C [19]: 98.2%
viability, T/C (second compound 1 µM, first compound 0.0999 µM): 25%
viability, T/C [21]: 3.89%
viability, T/C (second compound 3.16 µM, first compound 0.000999 µM): 98.3%
viability, T/C (second compound 3.16 µM, first compound 0.00316 µM): 104%
viability, T/C (second compound 3.16 µM, first compound 0.00999 µM): 104%
viability, T/C [25]: 81%
viability, T/C (second compound 3.16 µM, first compound 0.0999 µM): 14.8%
viability, T/C [27]: 1.84%
viability, T/C (second compound 10 µM, first compound 0.000999 µM): 100%
viability, T/C (second compound 10 µM, first compound 0.00316 µM): 104%
viability, T/C (second compound 10 µM, first compound 0.00999 µM): 108%
viability, T/C [31]: 74.8%
viability, T/C (second compound 10 µM, first compound 0.0999 µM): 2.99%
viability, T/C [33]: 0.49%

O=C(NO)c1cnc(N2CCN(S(=O)(=O)c3ccc4ccccc4c3)CC2)nc1 + CN(C)c1ccc(Nc2c3ccc(NC(=O)CCN4CCCC4)cc3nc3cc(NC(=O)CCN4CCCC4)ccc23)cc1
IC50 (second compound 0.0316 µM): 0.363 µM
IC50 (second compound 0.1 µM): 0.431 µM
IC50 (second compound 0.316 µM): 0.343 µM
IC50 (second compound 1 µM): 0.264 µM
IC50 (second compound 3.16 µM): 0.279 µM
IC50 (second compound 10 µM): 0.191 µM
viability, T/C [1]: 112%
viability, T/C [2]: 107%
viability, T/C [3]: 55.2%
viability, T/C [4]: 9.1%
viability, T/C [5]: 1.51%
viability, T/C [6]: 0.76%
viability, T/C [7]: 105%
viability, T/C [8]: 106%
viability, T/C [9]: 64.2%
viability, T/C [10]: 10.4%
viability, T/C [11]: 1.4%
viability, T/C [12]: 0.24%
viability, T/C [13]: 106%
viability, T/C [14]: 108%
viability, T/C [15]: 52.9%
viability, T/C [16]: 7.46%
viability, T/C [17]: 1.19%
viability, T/C [18]: 0.23%
viability, T/C [19]: 100%
viability, T/C [20]: 108%
viability, T/C [21]: 39.9%
viability, T/C [22]: 8.91%
viability, T/C [23]: 1.33%
viability, T/C [24]: 0.27%
viability, T/C [25]: 97.1%
viability, T/C [26]: 107%
viability, T/C [27]: 43.6%
viability, T/C [28]: 5.36%
viability, T/C [29]: 0.77%
viability, T/C [30]: 0.21%
viability, T/C [31]: 101%
viability, T/C [32]: 106%
viability, T/C [33]: 7.93%
viability, T/C [34]: 1.01%
viability, T/C [35]: 0.44%
viability, T/C [36]: 0.14%
